These are literature values, as cited in patent publication US20080241117A1, “Oral Care Compositions Containing a Mixed Tocopherol Component” (priority 2007, published 2008).

Where two headings read alike, the source gives them in different places.

The subject of data set [1] is gingivitis. The settings on record: applied topically in toothpaste; humans.
The conditions of data set [2]: applied topically in toothpaste.
Data set [3] relates to gingivitis. Conditions: applied topically in toothpaste; primates.
Data set [4] has as its system prostaglandin E2 in gingival crevicular fluid. Conditions: applied topically in rinse form.

Regarding `Cc1c(C)c2c(c(C)c1O)CC[C@@](C)(CCC[C@H](C)CCC[C@H](C)CCCC(C)C)O2` [alpha tocopherol], the effect on gingivitis entry in data set [1] and in data set [3] was “fails to provide an effect on gingivitis” throughout. For the same compound, the “penetration of gum tissue” value in data set [2] is “penetrates gum tissue”.

On to tocopherol [vitamin E], for which the “level of prostaglandin E2 in gingival crevicular fluid” value in data set [4] is reported as “reduced level of prostaglandin E2”.
